The values below are quoted from earlier work in patent US20100040600A1, “Agents for Promoting the Growth of Hematopoietic Stem Cells” (CHUGAI SEIYAKU KABUSHIKI KAISHA, priority 2006, published 2010).

Structures are written as SMILES. pEC50: −log10 of the molar value. Numbered stars: 1 amine (or outer) side, 2 acyl side, 3 side chain; on linkers, the order of the positions; unused ones are H or OH. Bridge positions count the residues as written; N and C are the ends. Square brackets hold non-standard residues; d marks the D form. Peptide text beside a SMILES is read from it. I, II: the chains in the order shown. 2Nal = N[CH](Cc1ccc2ccccc2c1)C(=O)O; X1 = NC(N)NCCCC(N[*:1])C(=O)[*:2]; NMeI = CC[CH](C)[CH](NC)C(=O)O; Sar = CNCC(=O)O

For data set [1], the system named is c-mpl. Particulars: cited from earlier work.
Data set [2] deals with T1, c-mpl (Homo sapiens, UniProt P40238).
T1 sequence (P40238 26-635): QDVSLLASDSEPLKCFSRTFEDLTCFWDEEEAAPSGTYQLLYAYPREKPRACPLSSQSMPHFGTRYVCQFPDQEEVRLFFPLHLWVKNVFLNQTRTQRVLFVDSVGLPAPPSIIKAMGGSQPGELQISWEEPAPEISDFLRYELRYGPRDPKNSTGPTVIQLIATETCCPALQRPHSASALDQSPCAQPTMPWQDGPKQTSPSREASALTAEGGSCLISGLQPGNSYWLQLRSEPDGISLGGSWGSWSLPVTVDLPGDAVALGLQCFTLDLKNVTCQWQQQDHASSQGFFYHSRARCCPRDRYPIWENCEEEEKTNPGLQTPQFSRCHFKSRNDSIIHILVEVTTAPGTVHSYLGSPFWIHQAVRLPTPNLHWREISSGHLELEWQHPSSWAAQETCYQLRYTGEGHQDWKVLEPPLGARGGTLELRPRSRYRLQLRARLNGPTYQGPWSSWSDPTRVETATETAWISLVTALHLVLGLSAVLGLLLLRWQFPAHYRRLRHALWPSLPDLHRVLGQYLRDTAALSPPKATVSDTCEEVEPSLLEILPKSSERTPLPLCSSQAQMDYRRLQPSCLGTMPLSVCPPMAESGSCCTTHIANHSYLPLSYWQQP
Particulars: cited from earlier work.

Another data set deals with Hu BM CD34. To be noted: in vitro activity; read-out: Hu BM CD34 differentiation assay: EC50; cited from earlier work.
Data set [3] concerns the target T2, c-mpl (Mus musculus, UniProt Q08351).
T2 sequence (Q08351 26-625): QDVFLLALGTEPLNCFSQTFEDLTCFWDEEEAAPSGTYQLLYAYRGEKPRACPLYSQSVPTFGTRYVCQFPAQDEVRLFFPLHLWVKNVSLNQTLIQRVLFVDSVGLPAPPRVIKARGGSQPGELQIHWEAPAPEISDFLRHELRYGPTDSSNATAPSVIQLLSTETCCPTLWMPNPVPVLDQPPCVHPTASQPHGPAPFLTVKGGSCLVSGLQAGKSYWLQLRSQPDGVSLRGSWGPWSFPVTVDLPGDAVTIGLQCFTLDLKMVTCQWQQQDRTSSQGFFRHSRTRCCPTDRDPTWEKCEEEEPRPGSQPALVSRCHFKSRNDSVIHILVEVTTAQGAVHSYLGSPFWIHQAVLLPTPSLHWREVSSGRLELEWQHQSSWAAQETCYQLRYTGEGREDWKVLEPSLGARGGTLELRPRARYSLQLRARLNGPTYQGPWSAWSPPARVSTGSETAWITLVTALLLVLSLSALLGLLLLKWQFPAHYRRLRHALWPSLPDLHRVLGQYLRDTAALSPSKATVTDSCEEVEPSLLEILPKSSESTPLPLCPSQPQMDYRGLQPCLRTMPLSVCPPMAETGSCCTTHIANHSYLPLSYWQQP
Particulars: cited from earlier work.

Data set [4] concerns the target T3, hu c-mpl transmembrane domain (Homo sapiens, UniProt P40238).
T3 sequence (P40238 26-635): T1 sequence (P40238 26-635)
To be noted: cited from earlier work.

For data set [5] the following is noted: cited from earlier work.
The subject of data set [6] is c-mpl. Particulars: cited from earlier work. The source holds these as a separate data set.
The subject of data set [7] is c-mpl. Particulars: cited from earlier work. The source holds these as a separate data set.
The next data set deals with dog receptors. Particulars: cited from earlier work.
Another data set deals with rat receptors. To be noted: cited from earlier work.
In another data set the target is T4, mouse receptors (Mus musculus, UniProt Q08351).
T4 sequence (Q08351 26-625): T2 sequence (Q08351 26-625)
To be noted: cited from earlier work.

With `CC1=NN(c2ccc(C)c(C)c2)C(=O)/C1=N\Nc1cccc(-c2cccc(C(=O)O)c2)c1O` [SB297115/Eltrombopag], in the data set with c-mpl [1], the “cross-reactivity: cynomolgus macaques” value is reported as “No cross-reactivity: cynomolgus macaques, cat, mouse, etc”. Further, on c-mpl [2], the species specificity entry is “High species specificity”. Moreover, the pEC50 with Hu BM CD34 was roughly 7.00. Besides, the “cross-reactivity: mouse” value at c-mpl [3] was “No cross-reactivity: cynomolgus macaques, cat, mouse, etc”. Further, in data set [4], the Binding site entry is recorded as “Binding site: a hu c-mpl transmembrane domain (His499, Thr496)”. In addition, in [5], the T1/2 entry was “T1/2 = 12 hr”. Also, the “cross-reactivity: chimpanzee” value with c-mpl [6] was “Cross-reactivity: chimpanzee”. In the data set on c-mpl [7], the “cross-reactivity: cat” value is given as “No cross-reactivity: cynomolgus macaques, cat, mouse, etc”.

Turning to `CCC(C)C(N)C(=O)NC(CCC(=O)O)C(=O)NCC(=O)N1CCCC1C(=O)NC(C(=O)NC(CC(C)C)C(=O)NC(CCCNC(=N)N)C(=O)NC(CCC(N)=O)C(=O)NC(Cc1ccc2ccccc2c1)C(=O)NC(CC(C)C)C(=O)NC(C)C(=O)NC(C)C(=O)NC(CCCNC(=N)N)C(=O)N(C)CC(=O)NC(CCCCNC(=O)CN(C)C(=O)C(CCCNC(N)N)NC(=O)C(C)NC(=O)C(C)NC(=O)C(CC(C)C)NC(=O)C(Cc1ccc2ccccc2c1)NC(=O)C(CCC(N)=O)NC(=O)C(CCCNC(=N)N)NC(=O)C(CC(C)C)NC(=O)C(NC(=O)C1CCCN1C(=O)CNC(=O)C(CCC(=O)O)NC(=O)C(NC)C(C)CC)C(C)O)C(N)=O)C(C)O` (centres unmarked) [peg-TPOmp] (I: H-IEGPTLRQ[2Nal]LAAR[Sar]K-NH2 / II: H-[NMeI]EGPTLRQ[2Nal]LAA[X1][Sar]; amide I:15-II:C; configuration not given here), in the data set on dog receptors, the “cross-reactivity to dog receptors” value was “Cross-reactive to mouse, rat, and dog receptors”. In the data set on rat receptors, the “cross-reactivity to rat receptors” value was “Cross-reactive to mouse, rat, and dog receptors”. The “cross-reactivity to mouse receptors” value on mouse receptors is “Cross-reactive to mouse, rat, and dog receptors”.

One may read the pEC50 as −log10 of the EC50, conventionally taken in molar units.
